# Results from patent US8853215B2, “Derivatives of N-acyl-N′-phenylpiperazine useful (inter alia) for the prophylaxis or treatment of diabetes” (Takeda Pharmaceutical Company Limited, priority 2009, dated 2014).
# How the values were obtained:
# [1] = target: human RBP4 (Homo sapiens (Human), UniProt P02753); test: Binding assay by Retinol-RBP4-TTR ELISA; settings: for inhibition at 10 µM: at 10 μM compound, read-out: human RBP4 binding inhibitory activity(% at 10 μM); for IC50: retinol 50 nM, His-tagged human RBP4, biotinylated human TTR, read-out: human RBP4 binding inhibitory activity (IC50 nM)
# Description: The action of the compound of the present invention to inhibit binding of RBP4 and retinol and TTR was evaluated using the Retinol-RBP4-TTR ELISA system shown below.
# 1F: Binding Assay by Retinol-RBP4-TTR ELISA
# This ELISA system detects a complex of RBP4 and TTR based on a retinol-dependent binding of RBP4 to TTR.
# His-tagged human RBP4 used was prepared in the above-mentioned 1C.
# Biotinylate human TTR used was prepared in the above-mentioned 1E.
# Streptavidin (20 μl) (10 μg/ml Streptavidin type II (Wako Pure Chemical Industries, Ltd.), 10 mM Tris-HCl (pH 7.5), 10 mM NaCl) was added to a 384 well black plate (Nunc MaxiSorp, Thermo Fisher Scientific Inc.), and the plate was subjected to centrifugation (1000 rpm, 1 min) and coated overnight at 4° C. The plate was washed twice with PBST (PBS, 0.05% Tween 20, 100 μl/well) and blocked with 25% Block Ace (Snow Brand Milk Products Co., Ltd., PBS, 100 μl/well). The plate was subjected to centrifugation (1000 rpm, 1 min) and incubated at room temperature for 4 hr or overnight at 4° C. The plate was washed twice with PBST (PBS, 0.05% Tween 20, 100 μl/well), and biotinylate human TTR (stock solution concentration 1.0 mg/ml) diluted 750-fold with PBST was added at 20 μl/well. The plate was subjected to centrifugation (1000 rpm, 1 min) and stood still at room temperature for 1.5 hr or overnight at 4° C. The plate was washed 3 times with PBST (100 μl/well), and His-tagged human RBP4 (stock solution concentration 0.96 mg/ml) diluted 4000-fold with a reaction buffer (50 mM Tris-HCl, 150 mM NaCl, 0.005% Tween 20, 1 mM DTT, 0.1% BSA) was added at 10 μl/well. The dilution series (8 doses from 10 mM, 200-fold concentration) of the compound was prepared with DMSO, and 1 μl of each was added to a reaction buffer (200 μl) containing retinol (50 nM) (Sigma-Aldrich Co.). A reaction buffer (200 μl) containing retinol and added with DMSO was used as a positive control, and reaction buffer (200 μl) free of retinol and added with DMSO was used as a negative control. Mixed solutions of retinol and the compound were added to the plate at 15 μl/well. The plate was stirred in a platemixer subjected to centrifugation (1000 rpm, 1 min) and reacted at room temperature for 2 hr. A 35% Block Ace solution diluted with the reaction buffer was added at 10 μl/well, centrifuged (1000 rpm, 1 min) and reacted at room temperature for 30 min. The plate was washed 3 times with PBST (100 μl/well) and SuperSignal ELISA Femto Maximum Sensitivity Substrate reagent (PIERCE, Thermo Fisher Scientific Inc.) was added at 30 μl/well, and the luminescence was measured by a platereader (Wallac).
# The binding inhibitory activity of the compound was determined by 100×(positive control value-test compound value)/(positive control value-negative control value). The binding activity (IC50) was calculated from the binding inhibitory rate at each compound concentration using a graph drawing software, GraphPad Prism (GraphPad Software Inc.).
# [2] = target: RBP4 (Mus musculus (Mouse), UniProt Q00724); test: Single administration test in mice, plasma RBP4 by ELISA; format: in vivo; settings: male C57BL/6J or ICR mice, 50 mg/kg oral single dose, mean±SD; for RBP4 (% of initial/Control) 0 hr: 0 hr (just before the administration); for RBP4 (% of initial/Control) 4 hr: 4 hr after administration; for RBP4 (% of initial/Control) 7 hr: 7 hr after administration; for RBP4 (% of initial/Control) 24 hr: 24 hr after administration
# Description: The action of the compounds of the present invention to reduce plasma RBP4 level was evaluated using the animal model shown below.
# Male C57BL/6J and ICR mice were purchased from Charles River (Japan) and maintained on a normal diet (CE2, CLAE Japan, Inc.) and tap water. Animals were housed in a temperature-controlled room adjusted to a 12-hour light/12-hour dark cycle beginning at 7:00 and 19:00, respectively. All procedures were conducted according to the experimental animal care use committee of Takeda Pharmaceutical Company.
# Male 6-12-week-old C57BL/6J or ICR mice were housed individually and fed CE2 for 4-6 days. After acclimatization, mice were divided into groups based on their body weight. Compounds were suspended in 0.5% (w/v) methylcellulose in water and given orally to mice at a dose of 50 mg/10 mL/kg of body weight (three to five mice per group). Blood samples were obtained from orbital vein with sodium heparin as an anticoagulant at time 0 hr (just before the administration), 4 hr, 7 hr, and 24 hr after the administration, followed by plasma separation by centrifugation. Plasma RBP4 levels were measured by enzyme-linked immunosorbent assay described in the following section.
# Plasma samples were analyzed in duplicate for RBP4 by an enzyme-linked immunosorbent assay. Mouse recombinant RBP4 (Takeda Pharmaceutical Company) was used as standards, and the assay range was 0.313-20 ng/ml. Samples were diluted 10,000-fold with phosphate-buffered saline (PBS) (Sigma) containing 10% (w/v) BlockAce (Dainippon Sumitomo Pharma Co., Ltd). Rabbit anti-RBP4 polyclonal antibody (100 μL/well of 50 μg/mL, Hokudo Co, Ltd) was incubated in a 96-well plate (Nalge Nunc International K.K.) for overnight at 4° C. Subsequently, the plates were washed with PBS-T (Wako Pure Chemical Industries, Ltd.) and blocked with PBS containing 25% BlockAce for 1 hr at room temperature. After another washing with PBS-T, samples and standards were applied to the well, and the plates were incubated for 2 hr at room temperature. After a washing the wells, peroxidase-labeled (Dojindo Laboratories) anti-RBP4 (100 μL/well) was added to the wells, and then the plates were incubated for 1 hr at room temperature. After a final washing with PBS-T, substrate solution 3,3,5,5-tetramethylbenzidine (Sigma) was added to the wells, and the plates were placed in the dark for 5-20 min at room temperature. The reaction was stopped with 0.5 M sulphuric acid and the optical density was measured with a spectrophotometer at 450 nm. The changes in plasma RBP4 levels were expressed as % of initial/Control. All data are presented as mean±SD.
SMILES,inhibition at 10 µM [1],RBP4 (% of initial/Control) 0 hr [2],RBP4 (% of initial/Control) 4 hr [2],RBP4 (% of initial/Control) 7 hr [2],RBP4 (% of initial/Control) 24 hr [2],IC50 [1]
"CC(C)(C)c1ccccc1N1CCN(C(=O)c2ccc(OCC(=O)O)cc2)CC1 [Example 24, (4-{[4-(2-tert-Butylphenyl)piperazin-1-yl]carbonyl}phenoxy)acetic acid]",100%,100.0 ± 36.4 % of initial/Control,30.9 ± 2.7 % of initial/Control,32.2 ± 2.2 % of initial/Control,73.1 ± 25.6 % of initial/Control,
"CC(C)(C)c1ccccc1N1CCN(C(=O)c2ccc(SCC(=O)O)nc2)CC1 [Example 25, [(5-{[4-(2-tert-Butylphenyl)piperazin-1-yl]carbonyl}pyridin-2-yl)sulfanyl]acetic acid]",100%,100.0 ± 7.3 % of initial/Control,45.0 ± 1.9 % of initial/Control,57.6 ± 5.6 % of initial/Control,75.8 ± 6.0 % of initial/Control,
"CC(C)(C)c1ccccc1N1CCN(C(=O)C(=O)NS(=O)(=O)NCC2CC2)CC1 [Example 39, 2-[4-(2-tert-Butylphenyl)piperazin-1-yl]-N-[(cyclopropylmethyl)sulfamoyl]-2-oxoacetamide]",97%,100.0 ± 5.8 % of initial/Control,37.1 ± 1.9 % of initial/Control,45.1 ± 6.2 % of initial/Control,86.6 ± 12.4 % of initial/Control,430 nM
"CC(C)(C)c1ccccc1N1CCN(C(=O)CCC(=O)O)CC1 [Example 53, 4-(4-(2-tert-Butylphenyl)piperazin-1-yl)-4-oxobutanoic acid]",100%,100.0 ± 29.7 % of initial/Control,39.9 ± 3.4 % of initial/Control,30.2 ± 1.3 % of initial/Control,93.6 ± 15.1 % of initial/Control,
"CC(C)(C)c1cc(Br)ccc1N1CCN(C(=O)C(=O)O)CC1 [Example 67, [4-(4-Bromo-2-tert-butylphenyl)piperazin-1-yl](oxo)acetic acid]",100%,100.0 ± 26.6 % of initial/Control,44.8 ± 2.9 % of initial/Control,40.3 ± 1.6 % of initial/Control,94.9 ± 22.6 % of initial/Control,
"CC(C)(C)c1cc(Br)ccc1N1CCN(C(=O)CC(=O)O)CC1 [Example 69, 3-[4-(4-Bromo-2-tert-butylphenyl)piperazin-1-yl]-3-oxopropanoic acid]",99%,100.0 ± 13.8 % of initial/Control,47.7 ± 2.7 % of initial/Control,44.4 ± 0.7 % of initial/Control,50.0 ± 2.4 % of initial/Control,30 nM
"CC(C)(C)c1ccccc1N1CCN(C(=O)C2(C(=O)O)CC2)CC1 [Example 71, 1-{[4-(2-tert-Butylphenyl)piperazin-1-yl]carbonyl}cyclopropanecarboxylic acid]",100%,100.0 ± 17.1 % of initial/Control,51.2 ± 1.0 % of initial/Control,56.7 ± 2.4 % of initial/Control,120.9 ± 9.0 % of initial/Control,150 nM
"Cc1ccc(N2CCN(C(=O)C(=O)O)CC2)c(C(C)(C)C)c1 [Example 82, [4-(2-tert-Butyl-4-methylphenyl)piperazin-1-yl](oxo)acetic acid]",99%,100.0 ± 12.5 % of initial/Control,54.6 ± 4.1 % of initial/Control,74.2 ± 15.5 % of initial/Control,101.5 ± 9.7 % of initial/Control,
"CC(C)(C)c1ccccc1N1CCN(C(=O)C(=O)NCC(=O)O)CC1 [Example 87, N-{[4-(2-tert-Butylphenyl)piperazin-1-yl](oxo)acetyl}glycine]",100%,100.0 ± 13.6 % of initial/Control,36.6 ± 1.0 % of initial/Control,38.1 ± 1.3 % of initial/Control,80.3 ± 18.4 % of initial/Control,
"CC(C)(C)c1ccccc1N1CCN(C(=O)C(=O)N2CCC(C(=O)O)CC2)CC1 [Example 89, 1-{[4-(2-tert-Butylphenyl)piperazin-1-yl](oxo)acetyl}piperidine-4-carboxylic acid]",99%,100.0 ± 34.2 % of initial/Control,42.5 ± 6.0 % of initial/Control,46.6 ± 4.3 % of initial/Control,105.9 ± 27.6 % of initial/Control,
